Assay results from the CheMixHub viscosity set.

Experiment: xn = mol fraction of the nth substance listed

Cc1ccnc(C)c1 + C1CCCCC1
viscosity [mPa·s], 101 kPa
Conditions	x1 = 0.1087	x1 = 0.208	x1 = 0.3004	x1 = 0.407	x1 = 0.507	x1 = 0.6004	x1 = 0.6977	x1 = 0.8002	x1 = 0.9019
303 K	0.7378	0.6882	0.6701	0.6574	0.6585	0.6674	0.6805	0.7102	0.7412
313 K	0.6355	0.6204	0.6004	0.5891	0.5844	0.6004	0.6055	0.6285	0.6543
323 K	0.5624	0.533	0.5166	0.5092	0.5073	0.52	0.54	0.5502	0.583

ClC(Cl)=C(Cl)Cl + C1CCCCC1
303.15 K, 101 kPa
Conditions	viscosity [mPa·s]
x1 = 0.1695	0.762
x1 = 0.2317	0.777
x1 = 0.2698	0.75
x1 = 0.3794	0.742
x1 = 0.4194	0.74
x1 = 0.4306	0.75
x1 = 0.4966	0.738
x1 = 0.5117	0.751
x1 = 0.5532	0.741
x1 = 0.5969	0.751
x1 = 0.6182	0.746
x1 = 0.6612	0.758
x1 = 0.7242	0.764
x1 = 0.7644	0.771
x1 = 0.8345	0.775
x1 = 0.8383	0.781
x1 = 0.9204	0.8

O=[N+]([O-])c1ccccc1 + C1CCCCC1
viscosity [mPa·s]
Conditions	298.15 K	303.15 K	308.15 K	313.15 K
101 kPa, x2 = 0.1079	–	1.461	–	–
101 kPa, x2 = 0.2065	–	1.325	–	–
101 kPa, x2 = 0.49	–	1.036	–	–
101 kPa, x2 = 0.5924	–	0.9727	–	–
101 kPa, x2 = 0.701	–	0.9147	–	–
101 kPa, x2 = 0.8319	–	0.844	–	–
101 kPa, x2 = 0.8998	–	0.8149	–	–
101.3 kPa, x1 = 0.099	0.9069	0.8365	0.7722	0.7123
101.3 kPa, x1 = 0.2037	0.9519	0.8775	0.8109	0.7485
101.3 kPa, x1 = 0.297	–	0.9369	0.8638	0.7984
101.3 kPa, x1 = 0.3968	1.089	1	0.925	0.8553
101.3 kPa, x1 = 0.4968	1.16	1.067	–	0.9115
101.3 kPa, x1 = 0.5973	1.247	1.153	1.065	0.9854
101.3 kPa, x1 = 0.6959	1.346	1.241	1.147	1.061
101.3 kPa, x1 = 0.8011	–	1.367	1.264	1.167
101.3 kPa, x1 = 0.893	1.603	1.481	1.358	1.254
101.3 kPa, x2 = 0.1908	–	–	1.385	–
